Laboratory results reported in the supplement of paper PMC10307832.

Key:
Assay in all cases: relative viability (nuclei count vs DMSO), 5 days (fraction); higher = more cells survive
Tozasertib + Luminespib = compound: Cc1cc(Nc2cc(N3CCN(C)CC3)nc(Sc3ccc(NC(=O)C4CC4)cc3)n2)n[nH]1 [Tozasertib] + CCNC(=O)c1noc(-c2cc(C(C)C)c(O)cc2O)c1-c1ccc(CN2CCOCC2)cc1 [Luminespib] (partner 0.01 µM)
Method in brief: (§1)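 For relative viability, nuclei counts in treated wells were divided by those in vehicle wells. Lung cancer cell lines had been pin-tool dosed in 1536-well plates the day after seeding and cultured for 5 days, then fixed and stained in one step (final 0.05% Triton X-100, 1% formaldehyde, 1 ug/ml Hoechst) and imaged at 4×. Doses were one drug alone or a fixed anchor-drug dose plus five library-drug doses (not always all listed) in √10 steps, and values are duplicate-plate medians.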

Tozasertib + Dasatinib = compound: Cc1cc(Nc2cc(N3CCN(C)CC3)nc(Sc3ccc(NC(=O)C4CC4)cc3)n2)n[nH]1 [Tozasertib] + Cc1nc(Nc2ncc(C(=O)Nc3c(C)cccc3Cl)s2)cc(N2CCN(CCO)CC2)n1 [Dasatinib] (partner 0.075 µM)
Method in brief: as §1

Tozasertib + Phenformin = compound: Cc1cc(Nc2cc(N3CCN(C)CC3)nc(Sc3ccc(NC(=O)C4CC4)cc3)n2)n[nH]1 [Tozasertib] + N=C(N)NC(=N)NCCc1ccccc1 [Phenformin] (partner 250 µM)
Method in brief: as §1

Tozasertib + Decitabine = compound: Cc1cc(Nc2cc(N3CCN(C)CC3)nc(Sc3ccc(NC(=O)C4CC4)cc3)n2)n[nH]1 [Tozasertib] + Nc1ncn([C@H]2C[C@H](O)[C@@H](CO)O2)c(=O)n1 [Decitabine] (partner 2 µM)
Method in brief: as §1

Tozasertib + Olaparib = compound: Cc1cc(Nc2cc(N3CCN(C)CC3)nc(Sc3ccc(NC(=O)C4CC4)cc3)n2)n[nH]1 [Tozasertib] + O=C(c1cc(Cc2n[nH]c(=O)c3ccccc23)ccc1F)N1CCN(C(=O)C2CC2)CC1 [Olaparib] (partner 8 µM)
Method in brief: as §1

Cell Line	relative viability (Tozasertib + Luminespib; first compound 0.004 µM)	relative viability (Tozasertib + Luminespib; first compound 0.01265 µM)	relative viability (Tozasertib + Luminespib; first compound 0.04 µM)	relative viability (Tozasertib + Luminespib; first compound 0.1265 µM)	relative viability (Tozasertib + Dasatinib; first compound 0.004 µM)	relative viability (Tozasertib + Dasatinib; first compound 0.01265 µM)	relative viability (Tozasertib + Dasatinib; first compound 0.04 µM)	relative viability (Tozasertib + Dasatinib; first compound 0.1265 µM)	relative viability (Tozasertib + Phenformin; first compound 0.004 µM)	relative viability (Tozasertib + Phenformin; first compound 0.01265 µM)	relative viability (Tozasertib + Phenformin; first compound 0.04 µM)	relative viability (Tozasertib + Phenformin; first compound 0.1265 µM)	relative viability (Tozasertib + Decitabine; first compound 0.004 µM)	relative viability (Tozasertib + Decitabine; first compound 0.01265 µM)	relative viability (Tozasertib + Decitabine; first compound 0.04 µM)	relative viability (Tozasertib + Decitabine; first compound 0.1265 µM)	relative viability (Tozasertib + Olaparib; first compound 0.004 µM)	relative viability (Tozasertib + Olaparib; first compound 0.01265 µM)	relative viability (Tozasertib + Olaparib; first compound 0.1265 µM)	relative viability (Tozasertib + Olaparib; first compound 0.04 µM)
NCI-H520	0.193	0.219	0.219	0.233	0.265	0.203	0.209	0.138	0.546	0.57	0.662	0.234	0.533	0.449	0.467	0.296	0.285	0.316	0.272	–
NCI-H1734	0.223	0.184	0.2	0.167	0.422	0.444	0.452	0.314	0.41	0.432	0.374	0.241	0.501	0.51	0.561	0.401	0.734	0.577	0.374	0.66
NCI-H596	0.957	0.96	1.09	0.901	0.555	0.589	0.645	0.53	–	0.808	0.968	0.834	0.984	0.948	0.853	0.888	0.605	0.769	0.525	0.732
COR-L 105	0.842	0.966	0.761	0.609	0.352	0.291	0.32	0.214	0.501	0.46	0.483	0.275	0.717	0.61	0.69	0.558	0.681	0.725	0.754	0.716
NCI-H1993	0.755	0.631	0.796	0.618	0.729	0.456	0.636	0.537	0.527	0.482	0.481	0.486	0.549	0.542	–	0.574	0.998	1.05	0.722	0.897
NCI-H1651	0.818	0.918	1	0.909	0.433	0.371	–	0.234	0.319	0.339	0.316	0.267	0.608	0.623	0.611	0.437	0.189	0.158	0.167	0.173
LCLC-103H	0.935	1.05	1.08	0.72	0.539	0.452	0.456	0.478	0.373	0.343	0.323	0.359	0.689	0.621	0.775	0.683	0.782	0.811	0.734	0.772
HCC-15	0.296	0.282	0.306	0.238	0.61	0.532	0.624	0.319	0.504	0.477	0.5	0.341	0.66	0.496	0.64	0.339	0.715	–	0.597	0.688
ChaGo-K-1	0.643	0.672	0.623	0.45	0.624	0.616	0.648	0.398	0.528	0.456	0.562	0.289	0.506	0.463	0.49	0.446	0.4	0.386	0.372	0.407
HCC-827	0.281	0.854	0.714	0.766	0.299	0.282	0.352	0.345	0.384	0.403	0.484	0.406	0.207	0.283	0.305	0.264	0.684	0.577	0.624	0.723
HOP-62	0.953	0.876	0.912	0.976	0.676	0.615	0.672	0.668	0.732	0.578	0.616	0.617	0.213	0.234	0.194	0.196	0.699	0.436	0.288	0.458
NCI-H2087	0.175	0.185	0.177	0.172	0.82	0.858	1.12	0.63	0.487	0.443	0.539	0.344	0.244	0.257	0.306	0.143	0.595	0.645	0.456	0.609
NCI-H3122	0.0858	0.0879	0.1	0.101	0.71	0.802	0.913	0.886	0.38	0.346	0.366	0.312	0.444	0.356	0.48	0.494	0.646	0.67	0.641	0.62
PC-3 [JPC-3]	0.625	0.699	0.814	0.71	0.863	0.966	1.06	1.03	0.377	0.49	0.536	0.469	0.808	0.889	0.828	0.793	0.807	1.15	1.14	1.16
NCI-H1650	0.199	0.2	0.223	0.197	0.311	0.377	–	0.167	0.47	0.38	0.595	0.199	0.351	0.364	0.404	0.307	0.818	0.721	0.722	0.885
SK-MES-1	0.921	0.731	0.82	0.82	0.358	0.336	0.342	0.356	0.691	0.642	0.71	0.696	0.319	0.376	0.434	0.316	0.791	0.666	0.657	0.71

Cell Line	relative viability (Tozasertib + Luminespib; first compound 0.004 µM)	relative viability (Tozasertib + Luminespib; first compound 0.01265 µM)	relative viability (Tozasertib + Luminespib; first compound 0.04 µM)	relative viability (Tozasertib + Luminespib; first compound 0.1265 µM)	relative viability (Tozasertib + Dasatinib; first compound 0.004 µM)	relative viability (Tozasertib + Dasatinib; first compound 0.01265 µM)	relative viability (Tozasertib + Dasatinib; first compound 0.04 µM)	relative viability (Tozasertib + Dasatinib; first compound 0.1265 µM)	relative viability (Tozasertib + Phenformin; first compound 0.004 µM)	relative viability (Tozasertib + Phenformin; first compound 0.01265 µM)	relative viability (Tozasertib + Phenformin; first compound 0.04 µM)	relative viability (Tozasertib + Phenformin; first compound 0.1265 µM)	relative viability (Tozasertib + Decitabine; first compound 0.004 µM)	relative viability (Tozasertib + Decitabine; first compound 0.01265 µM)	relative viability (Tozasertib + Decitabine; first compound 0.04 µM)	relative viability (Tozasertib + Decitabine; first compound 0.1265 µM)	relative viability (Tozasertib + Olaparib; first compound 0.004 µM)	relative viability (Tozasertib + Olaparib; first compound 0.01265 µM)	relative viability (Tozasertib + Olaparib; first compound 0.1265 µM)	relative viability (Tozasertib + Olaparib; first compound 0.04 µM)
SW 900	0.167	0.188	0.205	0.173	0.79	0.51	0.503	0.567	0.583	0.381	0.708	0.586	0.43	0.442	0.347	0.375	0.802	0.809	0.619	0.851
NCI-H1792	0.394	–	0.456	0.325	0.7	0.594	0.888	0.694	0.325	–	0.423	0.209	0.601	0.534	0.482	0.505	0.456	0.435	0.314	0.707
NCI-H2126	1	0.935	0.891	0.865	0.587	0.674	0.674	0.485	0.604	0.562	0.467	0.51	0.551	0.58	0.612	0.606	0.962	0.939	0.92	0.971
A-427	0.983	0.857	0.97	0.481	0.774	0.692	0.76	0.426	0.332	0.31	0.328	0.169	0.563	0.528	0.627	0.426	0.769	0.645	0.47	0.734
NCI-H2170	0.708	0.767	0.744	0.689	0.565	0.501	0.546	0.445	0.33	0.364	0.436	0.366	0.487	0.446	0.474	0.425	0.566	0.636	0.519	0.572
NCI-H23	0.198	0.221	0.183	0.198	0.747	0.91	0.832	0.909	0.76	–	0.85	0.745	0.332	0.298	0.276	0.242	0.34	0.29	0.182	0.269
NCI-H1793	0.181	0.198	0.191	0.18	0.387	0.36	0.377	0.285	0.33	0.427	0.414	0.458	0.555	0.495	0.508	0.397	0.918	0.778	0.533	0.974
RERF-LC-KJ	1.3	1.21	1.2	0.983	0.729	0.806	0.852	0.582	0.443	0.425	0.485	0.435	0.532	0.592	0.645	0.508	0.945	0.871	0.668	0.865
NCI-H358	0.265	0.394	0.382	0.234	0.154	0.152	0.187	0.121	0.353	0.295	0.354	0.0988	0.246	0.196	0.228	0.0965	0.555	0.562	0.187	0.56
LOU-NH91	–	0.354	0.33	0.336	–	0.519	0.573	0.499	–	0.672	0.797	0.559	0.681	0.791	0.812	0.762	0.781	0.916	0.922	0.937
NCI-H1915	0.968	0.835	0.678	0.482	0.376	0.298	0.313	0.264	0.381	0.324	0.336	0.321	0.268	0.263	0.236	0.261	0.248	0.275	0.212	0.212
NCI-H650	0.901	0.845	0.678	0.646	0.577	0.384	0.452	0.389	0.497	0.445	0.444	0.379	0.38	0.288	0.334	0.284	0.381	0.315	0.325	0.357
NCI-H1395	0.595	0.815	0.604	0.649	0.423	0.343	0.438	0.357	0.46	0.429	0.47	0.359	0.724	0.674	0.673	0.524	0.435	0.492	0.414	0.407
NCI-H661	1.01	0.916	0.973	0.575	1.12	0.85	0.699	0.249	0.287	0.313	0.319	0.253	0.65	0.599	0.569	0.304	0.807	0.791	0.448	0.663
NCI-H1975	0.213	0.32	0.171	0.198	0.492	0.407	0.342	0.308	0.444	0.432	0.428	0.366	0.371	0.462	0.382	0.36	0.829	0.739	0.74	0.795
NCI-H727	0.254	0.351	0.515	0.343	0.386	0.38	0.378	0.286	0.588	0.466	0.537	0.375	0.942	–	0.803	0.645	0.659	0.79	0.624	0.678
